Results: US20070020716A1, “Coronary Endothelial Dysfunction” (priority 2005, published 2007)

Legend:
[1] = test system: coronary artery diameter (left anterior descending coronary artery); assay: Epicardial endothelial function: change in coronary artery diameter after intracoronary acetylcholine; type: in vivo, human; details: maximal dose of acetylcholine, unadjusted
Procedure: (§1) After diagnostic angiography and exclusion of significant obstructive coronary artery disease, endothelium-dependent coronary vasoactivity was assessed as described elsewhere (Suwaidi et al., Circulation, 101:948-954 (2000) and Hasdai et al., Circulation, 96:3390-3395 (1997)). In brief, a Doppler guidewire (Flowire, Volcano Inc.) within a coronary-infusion catheter (Ultrafuse, SciMed Life System) was positioned into the midportion of the left anterior descending coronary artery. Intra-coronary acetylcholine at increasing concentrations of 10^−6, 10^−5, and 10^−4 M was infused to obtain effective coronary concentrations of 10^−8, 10^−7, and 10^−6 M, respectively. Each dose of acetylcholine was infused for three minutes through the infusion catheter into the left anterior descending coronary artery to assess endothelium dependent vasoreactivity. Hemodynamic data, Doppler measurements, and a coronary angiogram were obtained after each infusion. Coronary artery diameter was measured by an independent investigator in the segment 5 mm distal to the tip of the Doppler wire using a computer-based image analysis system. Average peak velocity (APV) was derived from the Doppler flow velocity spectra, and coronary blood flow (CBF) was determined as π(coronary artery diameter/2)^2×(APV/2). […] Endothelium-independent microvascular function was determined by the coronary flow reserve (CFR), which is the ratio of the APV at maximal hyperemia to the APV at baseline. […] Lp-PLA2 levels were measured in plasma aliquots, which were obtained at the time of coronary angiography and stored at −70° C., using an enzyme-linked immunoassay (PLAC™ test, diaDexus, Inc; Caslake et al., Atherosclerosis, 150:413-419 (2000)). […]
Epicardial endothelial function as determined by percentage change in coronary artery diameter in response to the maximal dose of acetylcholine was measured (FIG. 2). […]

[2] = test system: coronary blood flow (left anterior descending coronary artery); assay: Microvascular endothelial function: change in coronary blood flow after intracoronary acetylcholine; type: in vivo, human; details: maximal dose of intracoronary acetylcholine, unadjusted
Procedure: as §1
Microvascular endothelial function as determined by percentage change in coronary blood flow in response to the maximal dose of intracoronary acetylcholine was measured (FIG. 1). […]

[3] = patients in Lp-PLA2 Tertile 1 (110-181.4 ng/mL, N=57)
[4] = patients in Lp-PLA2 Tertile 2 (181.48-239.6 ng/mL, N=58)
[5] = patients in Lp-PLA2 Tertile 3 (240-443 ng/mL, N=57)

CC(=O)OCC[N+](C)(C)C [acetylcholine]
percentage change in coronary artery diameter [1, 3]: −9.5±15.2% | percentage change in coronary artery diameter [1, 4]: −14.1±14.7% | percentage change in coronary artery diameter [1, 5]: −23.3±25.1% | percentage change in coronary blood flow [2, 3]: 78.4±15.2% | percentage change in coronary blood flow [2, 4]: 63.8±73.2% | percentage change in coronary blood flow [2, 5]: 32.0±71.7%
